Assay results from ChEMBL document CHEMBL1201862, “PubChem BioAssay data set” (2004).
Active and inactive are the calls of the source.

Assays:
[1] = target: Peroxisome proliferator-activated receptor gamma/Nuclear receptor coactivator 1 (Homo sapiens, UniProt P37231); assay: (§1) TR-FRET dose response biochemical High Throughput Screening assay for agonists of the steroid receptor coactivator 1 (SRC-1) recruitment by the peroxisome proliferator-activated receptor gamma (PPAR gamma): non-selective agonists. [Related pubchem assays (depositor defined):AID1300, AID1808, AID504735, AID631]; format: protein assay
[2] = target: Peroxisome proliferator-activated receptor gamma/Nuclear receptor coactivator 3 (Homo sapiens, UniProt P37231); assay: as §1, with “3 (SRC-3)” for “1 (SRC-1)”, “assays: 1301 (Confirmation screen.), 1048 (Primary screen.)]” for “assays (depositor defined):AID1300, AID1808, AID504735, AID631]”; format: functional
[3] = target: Peroxisome proliferator-activated receptor gamma/Nuclear receptor coactivator 2 (Homo sapiens, UniProt P37231); assay: TR-FRET dose response biochemical High Throughput Screening assay for agonists of the steroid receptor coactivator 2 (SRC-2) recruitment by the peroxisome proliferator-activated receptor gamma (PPAR gamma): non-selective agonists. [Related pubchem assays: 1297, 1032 ]; format: functional
fMet-Leu-Phe receptor = target: T1, fMet-Leu-Phe receptor (Homo sapiens, UniProt P21462); assay: FPR ligands, dose response (AID 519); format: functional
T1 sequence (P21462 whole entry): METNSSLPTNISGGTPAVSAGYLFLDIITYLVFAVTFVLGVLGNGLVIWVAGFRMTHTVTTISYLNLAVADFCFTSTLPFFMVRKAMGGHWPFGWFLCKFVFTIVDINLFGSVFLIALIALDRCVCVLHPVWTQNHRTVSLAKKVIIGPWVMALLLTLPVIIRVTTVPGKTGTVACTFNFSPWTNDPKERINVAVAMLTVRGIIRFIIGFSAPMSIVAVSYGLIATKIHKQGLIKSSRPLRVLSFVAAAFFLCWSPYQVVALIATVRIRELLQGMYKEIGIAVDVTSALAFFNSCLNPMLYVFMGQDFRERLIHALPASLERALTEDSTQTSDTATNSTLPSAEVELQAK

Prothrombin = Prothrombin (Homo sapiens, UniProt P00734); assay: Thrombin 1536 HTS Dose Response Confirmation. [Related pubchem assays: 1046 (Thrombin 1536 HTS; hits were confirmed in this assay)]; format: functional
[4] = target: DNA dC->dU-editing enzyme APOBEC-3G (Homo sapiens, UniProt Q9HC16); assay: Dose Response confirmation of small molecule APOBEC3G DNA Deaminase Inhibitors via a fluorescence-based single-stranded DNA deaminase assay. [Related pubchem assays (depositor defined):AID493012, AID493028]; format: functional
[5] = ADAM10 inhibitors, peptide cleavage, dose response, biochemical, QFRET (AID 743254);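 note: ADAM10 enzyme with the DM2 quenched FRET peptide as substrate; EDANS fluorescence gain as the protease cuts the substrate; inhibitor potency against ADAM10 proteolytic activity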
[6] = target: Disintegrin and metalloproteinase domain-containing protein 17 (Homo sapiens, UniProt P78536); assay: ADAM17 protease inhibitors, dose response, counter-screen for ADAM10 exosite inhibitor project, biochemical, quenched FRET substrate (AID 743253)
Paired box protein Pax-8 = Paired box protein Pax-8 (Homo sapiens, UniProt Q06710); assay: inhibitors of PAX8-driven TPO luciferase reporter, dose response, RMG-I cells, cherry-pick (AID 687027); format: functional, cell-based;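 note: luciferase reporter driven by Pax8 target thyroperoxidase promoter measured by SteadyGlo luminescence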
[7] = NIH:OVCAR-3 ovarian cancer cell cytotoxicity, dose response, PAX8 inhibitor project, plate reader, dry powder samples (AID 743044); format: functional, cell-based
[8] = IGROV1 ovarian cancer cell cytotoxicity, dose response, PAX8 inhibitor project, plate reader, dry powder samples (AID 743043); format: functional, cell-based; details: IGROV-1
[9] = cytotoxicity in OVCAR8 ovarian cancer cells, dose response, PAX8 project, cell-based, plate reader, dry powder samples (AID 743197); format: functional; details: OVCAR-8
[10] = P. falciparum 3D7-ScDHODH growth inhibitors, dose response, SYBR Green, dry powder samples (AID 1159570); format: functional, cell-based;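 note: parasite growth measured after 72 hours of compound exposure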
[11] = HepG2 cell cytotoxicity, dose response, cytotoxicity control, plate reader, dry powder samples (AID 1159569); format: functional, cell-based;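 note: inhibitor potency with signal falling toward the positive control level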
[12] = P. falciparum Dd2 growth inhibitors, dose response, SYBR Green, cherry-picked samples (AID 1159567); format: functional, cell-based
[13] = P. falciparum Dd2 growth inhibitors, dose response, SYBR Green, dry powder samples (AID 1159566); format: functional, cell-based;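 note: potency for growth inhibition with lower SYBR green DNA signal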
[14] = P. falciparum ATP4 D1247Y mutant growth inhibitors, dose response, NITD609-resistant line, SYBR Green, dry powder (AID 1159571); format: functional, cell-based;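 note: parasites synchronized at ring stage by sorbitol before testing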
HEK293 [15] = assay: cells; details: Homo sapiens
HEK293 [16] = assay: cells; details: Homo sapiens; remark: listed apart in the source
Kallikrein-7 = Kallikrein-7 (Homo sapiens, UniProt P49862); assay: Fluorescence Intensity-based biochemical primary high throughput dose response assay to identify activators of kallikrein-7 (K7) zymogen.
[17] = IOSE-T80 ovarian epithelial cell cytotoxicity, dose response, cytotoxicity control for PAX8 inhibitor project, plate reader, dry powder samples (AID 743045); format: functional, cell-based
[18] = A2780 ovarian cancer cell cytotoxicity, dose response, cytotoxicity control, plate reader, dry powder samples (AID 743046); format: functional, cell-based
[19] = Concentration-dependent survival of SW480 colon cancer line, luminescence detection with CellTiter-Glo, half-maximal inhibitory concentration (AID 1117338); format: functional
[20] = RKO cell viability reduction, dose response, CellTiter-Glo luminescence (AID 1117322); format: functional
[21] = cytotoxicity toward HCT116 cells – cell-based, CellTiter-Glo luminescence, IC50, dose response (AID 1117332); format: functional; details: HCT-116
[22] = SNU-C1 cell viability reduction, dose response, CellTiter-Glo luminescence (AID 1117323); format: functional, cell-based
[23] = cytotoxicity toward Colo320 cells – cell-based, CellTiter-Glo luminescence, IC50, dose response (AID 1117334); format: functional; details: COLO 320
[24] = cytotoxicity toward HT-29 cells – cell-based, CellTiter-Glo luminescence, IC50, dose response (AID 1117330); format: functional
[25] = CellTiter-Glo luminescent dose response of DLD-1 viability loss (AID 1117352); format: functional

Paired box protein Pax-8, sequence (Q06710 whole entry): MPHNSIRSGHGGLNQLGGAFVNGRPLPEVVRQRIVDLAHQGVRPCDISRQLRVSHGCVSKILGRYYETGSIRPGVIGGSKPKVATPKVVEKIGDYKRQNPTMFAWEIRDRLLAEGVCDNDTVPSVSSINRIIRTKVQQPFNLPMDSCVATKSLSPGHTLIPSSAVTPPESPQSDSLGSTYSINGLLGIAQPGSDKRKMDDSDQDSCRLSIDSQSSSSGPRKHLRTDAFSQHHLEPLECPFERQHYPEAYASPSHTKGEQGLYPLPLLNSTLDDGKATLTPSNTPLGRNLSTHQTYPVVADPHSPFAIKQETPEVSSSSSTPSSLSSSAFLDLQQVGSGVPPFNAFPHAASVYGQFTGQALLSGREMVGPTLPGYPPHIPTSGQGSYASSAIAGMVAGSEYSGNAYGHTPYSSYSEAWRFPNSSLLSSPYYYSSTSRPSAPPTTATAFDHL
Disintegrin and metalloproteinase domain-containing protein 17, sequence (P78536 whole entry, the tested form may be a part): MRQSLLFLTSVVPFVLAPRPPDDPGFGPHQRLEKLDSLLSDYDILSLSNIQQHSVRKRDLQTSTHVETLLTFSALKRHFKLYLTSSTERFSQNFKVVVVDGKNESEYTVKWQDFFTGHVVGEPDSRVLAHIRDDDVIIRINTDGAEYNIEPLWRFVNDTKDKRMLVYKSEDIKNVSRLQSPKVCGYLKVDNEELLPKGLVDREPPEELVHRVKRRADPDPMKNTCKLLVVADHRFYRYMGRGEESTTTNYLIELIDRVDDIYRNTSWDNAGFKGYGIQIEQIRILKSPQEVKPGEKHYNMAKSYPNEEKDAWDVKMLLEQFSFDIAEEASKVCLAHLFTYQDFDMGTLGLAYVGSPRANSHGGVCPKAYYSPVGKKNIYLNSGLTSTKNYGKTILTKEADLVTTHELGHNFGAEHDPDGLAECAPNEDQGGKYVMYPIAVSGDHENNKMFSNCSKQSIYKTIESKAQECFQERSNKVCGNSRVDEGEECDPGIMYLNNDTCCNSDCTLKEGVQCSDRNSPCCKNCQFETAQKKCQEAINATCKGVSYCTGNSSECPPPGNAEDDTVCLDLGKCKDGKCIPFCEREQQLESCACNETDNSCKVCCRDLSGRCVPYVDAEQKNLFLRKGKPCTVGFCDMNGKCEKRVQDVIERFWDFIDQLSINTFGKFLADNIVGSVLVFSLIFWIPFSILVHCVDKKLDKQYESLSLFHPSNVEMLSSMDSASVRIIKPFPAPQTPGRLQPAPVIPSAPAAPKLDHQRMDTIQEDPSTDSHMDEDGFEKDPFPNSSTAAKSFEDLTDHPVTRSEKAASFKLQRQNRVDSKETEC
DNA dC->dU-editing enzyme APOBEC-3G, sequence (Q9HC16 whole entry): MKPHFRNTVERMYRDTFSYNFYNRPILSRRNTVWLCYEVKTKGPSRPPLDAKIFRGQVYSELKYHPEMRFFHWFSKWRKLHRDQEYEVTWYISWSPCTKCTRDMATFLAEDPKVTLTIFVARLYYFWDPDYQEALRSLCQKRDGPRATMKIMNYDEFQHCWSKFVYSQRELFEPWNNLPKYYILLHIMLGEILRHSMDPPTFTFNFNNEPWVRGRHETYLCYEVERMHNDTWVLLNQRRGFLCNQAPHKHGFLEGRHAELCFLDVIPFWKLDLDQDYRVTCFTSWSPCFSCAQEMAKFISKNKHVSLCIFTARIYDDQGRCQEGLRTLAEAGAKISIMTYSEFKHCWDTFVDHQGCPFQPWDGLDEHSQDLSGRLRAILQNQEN
Peroxisome proliferator-activated receptor gamma/Nuclear receptor coactivator 2, sequence (P37231 whole entry): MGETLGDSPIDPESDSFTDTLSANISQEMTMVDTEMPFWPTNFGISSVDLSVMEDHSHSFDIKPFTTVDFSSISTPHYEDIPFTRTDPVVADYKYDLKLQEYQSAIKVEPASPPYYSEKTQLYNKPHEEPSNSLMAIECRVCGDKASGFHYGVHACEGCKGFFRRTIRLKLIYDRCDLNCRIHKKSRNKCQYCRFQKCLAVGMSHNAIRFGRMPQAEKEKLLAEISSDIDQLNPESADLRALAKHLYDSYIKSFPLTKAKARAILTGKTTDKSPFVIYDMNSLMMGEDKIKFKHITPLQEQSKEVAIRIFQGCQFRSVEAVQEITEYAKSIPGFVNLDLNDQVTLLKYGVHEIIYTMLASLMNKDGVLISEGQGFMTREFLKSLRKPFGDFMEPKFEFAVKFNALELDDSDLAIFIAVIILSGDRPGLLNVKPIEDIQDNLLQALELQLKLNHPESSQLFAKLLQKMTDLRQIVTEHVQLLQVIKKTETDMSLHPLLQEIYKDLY
Peroxisome proliferator-activated receptor gamma/Nuclear receptor coactivator 2, sequence (Q15596 whole entry, further chain): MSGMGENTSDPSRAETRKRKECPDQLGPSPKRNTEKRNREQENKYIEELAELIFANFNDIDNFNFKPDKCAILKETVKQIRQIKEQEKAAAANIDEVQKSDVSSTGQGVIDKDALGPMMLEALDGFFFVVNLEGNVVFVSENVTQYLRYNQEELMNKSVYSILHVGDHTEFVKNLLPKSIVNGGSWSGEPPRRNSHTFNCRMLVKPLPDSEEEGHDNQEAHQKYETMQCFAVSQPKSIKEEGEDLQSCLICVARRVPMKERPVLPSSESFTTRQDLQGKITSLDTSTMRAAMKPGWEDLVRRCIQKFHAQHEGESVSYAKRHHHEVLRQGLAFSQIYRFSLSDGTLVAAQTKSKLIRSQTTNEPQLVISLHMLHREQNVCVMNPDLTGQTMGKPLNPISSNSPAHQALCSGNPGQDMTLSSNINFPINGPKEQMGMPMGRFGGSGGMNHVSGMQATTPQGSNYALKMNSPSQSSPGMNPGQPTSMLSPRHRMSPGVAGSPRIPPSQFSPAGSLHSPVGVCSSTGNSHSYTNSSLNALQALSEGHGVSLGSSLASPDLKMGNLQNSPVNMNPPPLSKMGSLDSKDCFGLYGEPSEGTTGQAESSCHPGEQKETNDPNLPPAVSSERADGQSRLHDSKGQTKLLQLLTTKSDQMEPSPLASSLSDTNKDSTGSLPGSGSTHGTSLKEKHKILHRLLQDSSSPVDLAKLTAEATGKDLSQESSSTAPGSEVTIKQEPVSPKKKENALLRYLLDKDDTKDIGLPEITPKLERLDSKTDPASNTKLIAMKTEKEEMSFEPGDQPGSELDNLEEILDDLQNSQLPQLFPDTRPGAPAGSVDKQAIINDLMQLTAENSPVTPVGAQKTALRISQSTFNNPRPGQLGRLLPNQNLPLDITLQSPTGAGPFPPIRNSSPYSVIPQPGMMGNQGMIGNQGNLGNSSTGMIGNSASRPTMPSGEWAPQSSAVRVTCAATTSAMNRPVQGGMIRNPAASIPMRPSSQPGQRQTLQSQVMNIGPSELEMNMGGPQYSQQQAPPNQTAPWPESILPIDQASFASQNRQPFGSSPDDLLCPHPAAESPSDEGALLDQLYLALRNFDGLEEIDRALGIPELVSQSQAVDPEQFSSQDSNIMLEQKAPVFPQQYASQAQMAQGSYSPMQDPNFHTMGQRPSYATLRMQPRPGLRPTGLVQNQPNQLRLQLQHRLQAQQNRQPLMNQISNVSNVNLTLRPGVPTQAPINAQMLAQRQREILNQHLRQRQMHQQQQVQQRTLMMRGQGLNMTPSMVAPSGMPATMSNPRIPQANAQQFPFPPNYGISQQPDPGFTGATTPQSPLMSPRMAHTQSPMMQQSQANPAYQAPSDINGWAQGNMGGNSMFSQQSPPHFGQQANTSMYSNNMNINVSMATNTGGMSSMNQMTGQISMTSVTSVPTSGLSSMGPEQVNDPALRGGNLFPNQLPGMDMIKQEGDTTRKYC
Kallikrein-7, sequence (P49862 whole entry): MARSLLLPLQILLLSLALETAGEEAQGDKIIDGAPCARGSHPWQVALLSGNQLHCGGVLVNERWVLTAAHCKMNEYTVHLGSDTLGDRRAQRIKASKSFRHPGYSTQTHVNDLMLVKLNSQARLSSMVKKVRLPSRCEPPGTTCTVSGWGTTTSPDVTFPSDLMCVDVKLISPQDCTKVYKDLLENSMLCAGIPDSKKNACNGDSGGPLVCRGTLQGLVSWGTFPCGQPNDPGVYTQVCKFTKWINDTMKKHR

COc1cccc(C2C(C(=O)c3ccc(OC)c(OC)c3)=C(O)C(=O)N2c2cc(C)on2)c1 (stereo unspecified)
EC50 [1]: > 79.4 µM (inactive)
EC50 [2]: > 79.4 µM (not active)
EC50 [3]: > 79.4 µM (not active)
Ki (fMet-Leu-Phe receptor): > 66.7 µM (inactive)

CN(C)S(=O)(=O)c1ccc(C(=O)Oc2cc(O)nc3ccccc23)cc1
IC50 (Prothrombin): 0.812 µM (active)

CCN(CC)c1ccc(NC(=O)COc2ccccc2C)cc1S(=O)(=O)Nc1ccccc1OC
IC50 [4]: 70.1 µM (active)
IC50 [5]: > 69.5 µM (inactive)
IC50 [6]: > 69.5 µM (inactive)

CCc1ccccc1N1C(=O)CC(=O)NC1=O
IC50 (Prothrombin): > 50 µM (not active)

C[C@H](CO)N1C[C@H](C)[C@H](CN(C)S(=O)(=O)c2ccc(Cl)cc2)OCc2ccccc2-c2c(n(C)c3ccccc23)C1=O
AC50 (Paired box protein Pax-8): 4.86 µM (active)
IC50 [5]: 9.56 µM (active)
AC50 [7]: 26.2 µM (active)
AC50 [8]: 62.3 µM (active)
AC50 [9]: 41.6 µM (active)
IC50 [6]: > 69.5 µM (inactive)
AC50 [10]: 0.193 µM (active)
AC50 [11]: 35.5 µM (active)
AC50 [12]: < 0.35 µM (active)
AC50 [13]: 0.0741 µM (active)
AC50 [14]: 0.129 µM (active)
EC50 (HEK293 [15]): > 59.7 µM (inactive)
EC50 (HEK293 [16]): > 59.7 µM (inactive)

CC(c1nc2ccccc2[nH]1)n1c(=O)c(-c2cccs2)nc2ccccc21 (stereo unspecified)
EC50 (Kallikrein-7): 8.14 µM (active)

C[C@H](CO)N1C[C@H](C)[C@@H](CN(C)Cc2ccncc2)Oc2ccc(NC(=O)Nc3ccc(C(F)(F)F)cc3)cc2CC1=O
AC50 (Paired box protein Pax-8): 5.69 µM (active)
AC50 [17]: 37.6 µM (active)
AC50 [18]: 32.5 µM (active)
AC50 [7]: 22.8 µM (active)
AC50 [8]: 26.8 µM (active)
AC50 [9]: > 70 µM (inactive)

NC(=O)N/N=C/c1ccc([N+](=O)[O-])o1 [NITROFURAZONE]
IC50 [19]: > 20 µM (inactive)
IC50 [20]: > 20 µM (inactive)
IC50 [21]: > 20 µM (inactive)
IC50 [22]: > 20 µM (inactive)
IC50 [23]: > 20 µM (inactive)
IC50 [24]: > 20 µM (inactive)
IC50 [25]: > 20 µM (inactive)
